According to ChEMBL document CHEMBL3864189, “Carboxamide Spleen Tyrosine Kinase (Syk) Inhibitors: Leveraging Ground State Interactions To Accelerate Optimization” (ACS Med Chem Lett, 2016):
Active and inactive are the calls of the source. No cut-off for these calls is given here.

Legend:
Salmonella typhimurium [1] = assay: Genotoxicity in Salmonella typhimurium TA97a in presence of rat s9 fraction by Ames test; format: toxicity, organism-based; conditions: salmonella enterica subsp. enterica serovar typhimurium
[2] = Unbound plasma clearance in po dosed rat; format: ADME, organism-based; conditions: in vivo
Rattus norvegicus = assay: Antiarthritic activity in collagen-induced arthritis rat model at 3 mg/kg, po administered qd; format: functional, organism-based
Salmonella typhimurium [3] = assay: Genotoxicity in Salmonella typhimurium TA97a by Ames test; format: toxicity, organism-based; conditions: salmonella enterica subsp. enterica serovar typhimurium
[4] = biological target: T1, Tyrosine-protein kinase SYK (Homo sapiens, UniProt P43405); assay: Inhibition of GST-tagged full length human SYK (1 to 635 end residues) expressed in baculovirus expression system at 10 uM preincubated for 10 mins followed by Blk/Lyntide substrate and ATP addition measured after 45 mins TR-FRET assay relative to control
[5] = biological target: T1, Tyrosine-protein kinase SYK; assay: Inhibition of GST-tagged full length human SYK (1 to 635 end residues) expressed in baculovirus expression system preincubated for 10 mins followed by Blk/Lyntide substrate and ATP addition measured after 45 mins TR-FRET assay
[6] = Oral bioavailability in rat; format: ADME, organism-based; conditions: in vivo

| CL free [2] [mL/min/kg] | SMILES | Activity (Salmonella typhimurium [1]) | also measured |
| --- | --- | --- | --- |
| – | NC(=O)c1ncc(N[C@@H]2CCCC[C@@H]2N)cc1/C=C/c1ccccc1 | Non-Toxic | – |
| – | C[C@H](N)CNc1cnc(C(N)=O)c(-c2cc3ccccc3o2)n1 | Non-Toxic | – |
| – | C[C@H](N)CNc1cnc(C(N)=O)c(-c2cnn(C)c2)n1 | Non-Toxic | – |
| 100 | COc1cccc2[nH]c(-c3nc(N[C@@H]4CCOC[C@@H]4N)cnc3C(N)=O)cc12 | Non-Toxic | – |
| – | NC(=O)c1ncc(N[C@@H]2CCCC[C@@H]2N)cc1COc1ccccc1 | Non-Toxic | – |
| – | C[C@H](N)CNc1cnc(C(N)=O)c(-c2cc3ccccc3[nH]2)n1 | Non-Toxic | – |
| – | NC(=O)c1ncc(N[C@@H]2CCCC[C@@H]2N)cc1C#Cc1ccccc1 | Non-Toxic | – |
| 710 | Cc1cc(C)nc(Nc2cc(N[C@@H]3CCCC[C@@H]3N)cnc2C(N)=O)c1 | – | Activity (Rattus norvegicus): Active; Activity (Salmonella typhimurium [3]): Toxic |
| – | Cn1cc(-c2cc(N[C@@H]3CCCC[C@@H]3N)cnc2C(N)=O)cn1 | Non-Toxic | inhibition [4]: 9%; IC50 [5]: > 10 µM |
| 255 | NC(=O)c1ncc(N[C@@H]2CCCC[C@@H]2N)nc1-c1cc2ccccc2[nH]1 | Non-Toxic | bioavailability [6]: 19% |
